Common to all, as to format: biochemical
For experiment [1], the target named is T1, cathepsin K (Homo sapiens, UniProt P43235).
T1 sequence (P43235 115-329): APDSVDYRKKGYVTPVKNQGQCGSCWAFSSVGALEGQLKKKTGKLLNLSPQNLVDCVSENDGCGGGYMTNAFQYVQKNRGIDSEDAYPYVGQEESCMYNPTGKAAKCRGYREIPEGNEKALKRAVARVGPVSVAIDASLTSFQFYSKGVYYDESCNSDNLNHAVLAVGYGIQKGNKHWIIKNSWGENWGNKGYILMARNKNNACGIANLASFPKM
Kind of experiment: Inhibitory activity assay against cathepsin K (enzyme assay). The settings on record: Z-Phe-Arg-AMC 10 μM, enzyme 1 nM, pH 5.5, 30 minutes. Summed up:
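IC50 by 4-parameter logistic fit of fluorescence (ex 355 nm, em 460 nm) after 30 min reaction. Compound tested at 10 final concentrations from 10.0 μM down to 0.000508 μM against 1 nM enzyme and 10 μM Z-Phe-Arg-AMC, in MES buffer pH 5.5 with DTT, EDTA, Triton X-100 and 10% DMSO.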

Experiment [2] has as its target cathepsin S (Homo sapiens, UniProt P25774). The experiment in a line: Inhibitory activity assay against cathepsin S (enzyme assay). The settings on record: Z-Phe-Arg-AMC 70 μM, enzyme 3 nM, pH 6.5, 45 minutes. Summed up:
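Ten-point compound titration (10.0 to 0.000508 μM final) reacted 45 min with 3 nM cathepsin S and 70 μM Z-Phe-Arg-AMC in MES 50 mM pH 6.5, DTT 2.5 mM, EDTA 1.0 mM, BSA 0.001%, DMSO 10%. AMC release read at 340/460 nm; IC50 from four-parameter logistic fit.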

The target of experiment [3] is cathepsin B (Homo sapiens, UniProt P07858). The experiment in a line: Inhibitory activity assay against cathepsin B (enzyme assay). Conditions: Z-Arg-Arg-AMC 40 μM, enzyme 1 nM, pH 6.0, 90 minutes. Summed up: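 Reaction run 90 min in MES buffer pH 6.0 containing DTT, EDTA, Polysorbate 20 and 10% DMSO, using 40 μM fluorogenic Z-Arg-Arg-AMC and 1 nM cathepsin B. Ten compound levels from 10.0 μM; AMC fluorescence at ex 340/em 460 nm fitted to a 4-parameter logistic for IC50.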

In experiment [4] the target is cathepsin L (Homo sapiens, UniProt P07711). Kind of experiment: Inhibitory activity assay against cathepsin L (enzyme assay). The settings on record: Z-Phe-Arg-AMC 2 μM, enzyme 3 nM, pH 5.5, 30 minutes. Summed up: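 IC50s came from 4-parameter logistic fits of ten concentrations (10.0 μM down to 0.000508 μM). Reaction: 30 min, 3 nM enzyme, 2 μM Z-Phe-Arg-AMC, pH 5.5 MES buffer containing DTT, EDTA, Polysorbate 20 and 10% DMSO; fluorescence read 340/460 nm.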
Chain of cathepsin L (P07711 114-333, species assumed): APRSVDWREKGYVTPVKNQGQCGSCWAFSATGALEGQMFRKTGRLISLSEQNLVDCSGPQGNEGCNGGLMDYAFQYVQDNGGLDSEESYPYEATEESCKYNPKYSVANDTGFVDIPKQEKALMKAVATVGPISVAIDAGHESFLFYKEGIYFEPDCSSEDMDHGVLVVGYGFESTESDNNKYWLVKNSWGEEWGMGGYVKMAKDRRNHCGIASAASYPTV

Bounds are passed on as bounds.

Chain of cathepsin S (P25774 115-331, species assumed): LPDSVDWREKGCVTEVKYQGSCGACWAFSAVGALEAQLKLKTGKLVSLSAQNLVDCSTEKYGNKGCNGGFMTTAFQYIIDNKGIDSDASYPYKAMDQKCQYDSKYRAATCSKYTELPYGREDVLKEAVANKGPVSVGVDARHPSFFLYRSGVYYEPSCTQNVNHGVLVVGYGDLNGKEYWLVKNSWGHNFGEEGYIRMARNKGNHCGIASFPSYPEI

`N#Cc1nccc(C2(NC(=O)Nc3ccc(F)c(C(F)(F)F)c3)CCOCC2)n1` [Example 85, 1-(4-(2-cyanopyrimidin-4-yl)tetrahydro-2H-pyran-4-yl)-3-(4-fluoro-3-(trifluoromethyl)phenyl)urea]: the IC50 – broadly, the concentration needed to halve the response being measured – in experiment [1] was 28.2 nM; in experiment [2] it was above 10000 nM; in experiment [3] it was above 10000 nM; in experiment [4] it was above 10000 nM.

Consider `N#Cc1nccc(C2(NC(=O)Nc3ccccc3)CCCCC2)n1` [Example 86, 1-(1-(2-cyanopyrimidin-4-yl)cyclohexyl)-3-phenylurea], for which the IC50 in experiment [1] was 38.9 nM; in experiment [2], 7110 nM; in experiment [3], above 10000 nM; in experiment [4], 2460 nM.

`Cc1ccc(C)c(NC(=O)NC2(c3ccnc(C#N)n3)CCCCC2)c1` [Example 87, 1-(1-(2-cyanopyrimidin-4-yl)cyclohexyl)-3-(2,5-dimethylphenyl)urea]: the IC50 in experiment [1] was 3.6 nM; in experiment [2], 6260 nM; in experiment [3], above 10000 nM; in experiment [4], 898 nM.

On to `N#Cc1nccc(C2(NC(=O)NCc3ccccc3)CCCCC2)n1` [Example 88, 1-benzyl-3-(1-(2-cyanopyrimidin-4-yl)cyclohexyl)urea], for which the IC50 in experiment [1] was 31.6 nM; in experiment [2] it was above 10000 nM; in experiment [3], above 10000 nM; in experiment [4] it was 7140 nM.

Take `N#Cc1nccc(C2(NC(=O)Nc3cccc(C(F)(F)F)c3)CCCCC2)n1` [Example 89, 1-(1-(2-cyanopyrimidin-4-yl)cyclohexyl)-3-(3-(trifluoromethyl)phenyl)urea]: the IC50 in experiment [1] is 3.8 nM; in experiment [2] it was above 10000 nM; in experiment [3], above 10000 nM; in experiment [4], 6890 nM.

Regarding `N#Cc1nccc(C2(NC(=O)Nc3ccc(C(F)(F)F)cc3)CCCCC2)n1` [Example 90, 1-(1-(2-cyanopyrimidin-4-yl)cyclohexyl)-3-(4-(trifluoromethyl)phenyl)urea], the IC50 in experiment [1] was 68.2 nM; in experiment [2], above 10000 nM; in experiment [3], above 10000 nM; in experiment [4], above 10000 nM.

Regarding `N#Cc1nccc(C2(NC(=O)NCc3ccccc3C(F)(F)F)CCCCC2)n1` [Example 91, 1-(1-(2-cyanopyrimidin-4-yl)cyclohexyl)-3-(2-(trifluoromethyl)benzyl)urea], the IC50 was 32.2 nM in experiment [1], above 10000 nM in experiment [2], above 10000 nM in experiment [3] and 4770 nM in experiment [4].

In the case of `N#Cc1nccc(C2(NC(=O)Nc3ccccc3C(F)(F)F)CCCCC2)n1` [Example 92, 1-(1-(2-cyanopyrimidin-4-yl)cyclohexyl)-3-(2-(trifluoromethyl)phenyl)urea], the half-maximal inhibitory concentration (IC50) is 40.9 nM in experiment [1], above 10000 nM in experiment [2], above 10000 nM in experiment [3] and above 10000 nM in experiment [4].

Regarding `N#Cc1nccc(C2(NC(=O)Nc3ccc(Cl)c(C(F)(F)F)c3)CCCCC2)n1` [Example 93, 1-(4-chloro-3-(trifluoromethyl)phenyl)-3-(1-(2-cyanopyrimidin-4-yl)cyclohexyl)urea], the IC50 in experiment [1] was 23.9 nM; in experiment [2], above 10000 nM; in experiment [3] it was above 10000 nM; in experiment [4], above 10000 nM.

For `Cc1ccc(F)c(NC(=O)NC2(c3ccnc(C#N)n3)CCCCC2)c1` [Example 94, 1-(1-(2-cyanopyrimidin-4-yl)cyclohexyl)-3-(2-fluoro-5-methylphenyl)urea], the IC50 in experiment [1] was 9 nM; in experiment [2] it was 8240 nM; in experiment [3], above 10000 nM; in experiment [4] it was 1130 nM.

Regarding `N#Cc1nccc(C2(NC(=O)Nc3cc(C(F)(F)F)cc(C(F)(F)F)c3)CCCCC2)n1` [Example 95, 1-(3,5-bis(trifluoromethyl)phenyl)-3-(1-(2-cyanopyrimidin-4-yl)cyclohexyl)urea], the half-inhibitory concentration (IC50) in experiment [1] is 18.3 nM; in experiment [2] it was above 10000 nM; in experiment [3] it was above 10000 nM; in experiment [4] it was above 10000 nM.

As to `N#Cc1nccc(C2(NC(=O)Nc3ccc(F)c(C(F)(F)F)c3)CCCCC2)n1` [Example 96, 1-(1-(2-cyanopyrimidin-4-yl)cyclohexyl)-3-(4-fluoro-3-(trifluoromethyl)phenyl)urea], the IC50 in experiment [1] was 10.2 nM; in experiment [2], above 10000 nM; in experiment [3], above 10000 nM; in experiment [4] it was 6500 nM.

For the compound `N#Cc1nccc(C2(NC(=O)Nc3cc(C(F)(F)F)ccc3F)CCCCC2)n1` [Example 97, 1-(1-(2-cyanopyrimidin-4-yl)cyclohexyl)-3-(2-fluoro-5-(trifluoromethyl)phenyl)urea], the IC50 in experiment [1] is 4.9 nM; in experiment [2], above 10000 nM; in experiment [3], above 10000 nM; in experiment [4] it was above 10000 nM.

As for `N#Cc1nccc(C2(NC(=O)Nc3cc(C(F)(F)F)ccc3C(=O)O)CCCCC2)n1` [Example 98, 2-(3-(1-(2-cyanopyrimidin-4-yl)cyclohexyl)ureido)-4-(trifluoromethyl)benzoic acid], the IC50 in experiment [1] was 61.7 nM; in experiment [2], 4480 nM; in experiment [3], above 10000 nM; in experiment [4], above 10000 nM.

Take `Cc1ccc(C(F)(F)F)cc1NC(=O)NC1(c2ccnc(C#N)n2)CCCCC1` [Example 99, 1-(1-(2-cyanopyrimidin-4-yl)cyclohexyl)-3-(2-methyl-5-(trifluoromethyl)phenyl)urea]: the IC50 is 3.2 nM in experiment [1], above 10000 nM in experiment [2], above 10000 nM in experiment [3] and 1100 nM in experiment [4].

Consider `N#Cc1nccc(C2(NC(=O)Nc3ccc(Cc4ccccc4)cc3)CCCCC2)n1` [Example 100, 1-(4-benzylphenyl)-3-(1-(2-cyanopyrimidin-4-yl)cyclohexyl)urea], for which the IC50 in experiment [1] was 15.4 nM; in experiment [2], above 10000 nM; in experiment [3], above 10000 nM; in experiment [4] it was above 10000 nM.

On to `N#Cc1nccc(C2(NC(=O)Nc3ccc(Nc4ccccc4)cc3)CCCCC2)n1` [Example 101, 1-(1-(2-cyanopyrimidin-4-yl)cyclohexyl)-3-(4-(phenylamino)phenyl)urea], for which the IC50 in experiment [1] is 21.7 nM; in experiment [2], above 10000 nM; in experiment [3], above 10000 nM; in experiment [4], above 10000 nM.

For `N#Cc1nccc(C2(NC(=O)Nc3ccccc3O)CCCCC2)n1` [Example 102, 1-(1-(2-cyanopyrimidin-4-yl)cyclohexyl)-3-(2-hydroxyphenyl)urea], the IC50 in experiment [1] is 63.2 nM; in experiment [2], 6240 nM; in experiment [3], above 10000 nM; in experiment [4], 3440 nM.

Turning to `N#Cc1nccc(C2(NC(=O)Nc3cc(C(F)(F)F)ccc3C(F)(F)F)CCCCC2)n1` [Example 103, 1-(2,5-bis(trifluoromethyl)phenyl)-3-(1-(2-cyanopyrimidin-4-yl)cyclohexyl)urea], the IC50 in experiment [1] was 4.6 nM; in experiment [2], above 10000 nM; in experiment [3], above 10000 nM; in experiment [4], above 10000 nM.

On to `CN(C(=O)NC1(c2ccnc(C#N)n2)CCCCC1)c1ccccc1` [Example 104, 3-(1-(2-cyanopyrimidin-4-yl)cyclohexyl)-1-methyl-1-phenylurea], for which the IC50 in experiment [1] was 12.4 nM; in experiment [2], 3540 nM; in experiment [3] it was above 10000 nM; in experiment [4], 5590 nM.

Regarding `CN(C(=O)NC1(c2ccnc(C#N)n2)CCCCC1)c1ccc(F)c(C(F)(F)F)c1` [Example 105, 3-(1-(2-cyanopyrimidin-4-yl)cyclohexyl)-1-(4-fluoro-3-(trifluoromethyl)phenyl)-1-methylurea], the IC50 in experiment [1] is 2.1 nM; in experiment [2], 3630 nM; in experiment [3], above 10000 nM; in experiment [4], 2980 nM.

Consider `N#Cc1nccc(C2(NC(=O)Nc3cc(C(F)(F)F)c(F)cc3F)CCCCC2)n1` [Example 106, 1-(1-(2-cyanopyrimidin-4-yl)cyclohexyl)-3-(2,4-difluoro-5-(trifluoromethyl)phenyl)urea], for which the IC50 in experiment [1] was 3.1 nM; in experiment [2], above 10000 nM; in experiment [3], above 10000 nM; in experiment [4] it was above 10000 nM.

On to `COCc1ccc(C(F)(F)F)cc1NC(=O)NC1(c2ccnc(C#N)n2)CCCCC1` [Example 107, 1-(1-(2-cyanopyrimidin-4-yl)cyclohexyl)-3-(2-(methoxymethyl)-5-(trifluoromethyl)phenyl)urea], for which the IC50 in experiment [1] is 6.8 nM; in experiment [2], 4750 nM; in experiment [3] it was above 10000 nM; in experiment [4], 1470 nM.

These data come from US11299478B2, “2-cyanopyrimidin-4-yl carbamate or urea derivative or salt thereof, and pharmaceutical composition including same” (HANLIM PHARMACEUTICAL CO., LTD., priority 2018, dated 2022).
